Data taken from patent US5137892A, “Quinoline, naphthyridine and pyridobenzoxazine derivatives” (Abbott Laboratories, priority 1990, dated 1992).
Values after ≈ are worked out from the molar mass of the structure shown.

Tests used:
Format in all cases: cell-based
[1] = tested on: Pseudomonas aeruginosa K599/61; conditions: P. aeruginosa K599/61; BHI agar dilution, 20-24 hours; unit assumed
Description: (§1) The activity of the compounds of the present invention was tested against a wide variety of bacteria using standard assay procedures. Minimum inhibitory concentrations (MICs) were determined by the agar dilution method, described below, using Brain Heart Infusion agar.
(§2) Twelve petri dishes were prepared, each containing successive aqueous 2-fold dilutions of the test compounds mixed with 10 mL of sterilized Brain Heart Infusion (BHI) agar. Each plate was inoculated with 100-fold (or 10-fold, for slow-growing strains such as Micrococcus and Streptococcus) dilutions of up to 32 different microorganisms using a Steers replicator block calibrated to deliver approximately 10^4 colony forming units (CFUs). The inoculated plates were incubated at about 35°-37° C. for approximately 20-24 hours. In addition, a control plate, using BHI agar containing no test compound, was prepared and incubated at the beginning and at the end of each test. Ciprofloxacin was used as the reference antibiotic.
(§3) The MIC was defined as the lowest concentration of test compound yielding no growth (a slight haze or sparsely isolated colonies at the inoculum spot as compared to the growth control contaning no test compound.

[2] = tested on: Streptococcus pyogenes 2548 INDUC; assay: In Vitro Antibacterial Activity, agar dilution MIC; conditions: S. pyogenes 2548 INDUC; BHI agar dilution, 20-24 hours; unit assumed
Description: as §1, §2, §3

[3] = tested on: Enterococcus faecium ATCC 8043; assay: In Vitro Antibacterial Activity, agar dilution MIC; conditions: E. faecium ATCC 8043; BHI agar dilution, 20-24 hours; unit assumed
Description: as §1, §2, §3

[4] = tested on: Staphylococcus aureus NCTC 10649; assay: In Vitro Antibacterial Activity, agar dilution MIC; conditions: S. aureus NCTC 10649; BHI agar dilution, 20-24 hours; unit assumed
Description: as §1, §2, §3

[5] = tested on: Staphylococcus epidermidis 3519; assay: In Vitro Antibacterial Activity, agar dilution MIC; conditions: S. epidermidis 3519; BHI agar dilution, 20-24 hours; unit assumed
Description: as §1, §2, §3

[6] = tested on: Pseudomonas aeruginosa 5263; assay: In Vitro Antibacterial Activity, agar dilution MIC; conditions: P. aeruginosa 5263; BHI agar dilution, 20-24 hours; unit assumed
Description: as §1, §2, §3

[7] = tested on: Staphylococcus aureus A-5278; assay: In Vitro Antibacterial Activity, agar dilution MIC; conditions: S. aureus A-5278; BHI agar dilution, 20-24 hours; unit assumed
Description: as §1, §2, §3

[8] = tested on: Acinetobacter SP CMX 699; assay: In Vitro Antibacterial Activity, agar dilution MIC; conditions: BHI agar dilution, 20-24 hours, unit assumed
Description: as §1, §2, §3

[9] = tested on: Escherichia coli JUHL; assay: In Vitro Antibacterial Activity, agar dilution MIC; conditions: E. coli JUHL; BHI agar dilution, 20-24 hours; unit assumed
Description: as §1, §2, §3

[10] = tested on: Staphylococcus aureus ATCC 6538P; assay: In Vitro Antibacterial Activity, agar dilution MIC; conditions: S. aureus ATCC 6538P; BHI agar dilution, 20-24 hours; unit assumed
Description: as §1, §2, §3

[11] = tested on: Escherichia coli SS; assay: In Vitro Antibacterial Activity, agar dilution MIC; conditions: E. coli SS; BHI agar dilution, 20-24 hours; unit assumed
Description: as §1, §2, §3

[12] = tested on: Escherichia coli DC-2; assay: In Vitro Antibacterial Activity, agar dilution MIC; conditions: E. coli DC-2; BHI agar dilution, 20-24 hours; unit assumed
Description: as §1, §2, §3

[13] = tested on: Escherichia coli KNK 437; assay: In Vitro Antibacterial Activity, agar dilution MIC; conditions: E. coli KNK 437; BHI agar dilution, 20-24 hours; unit assumed
Description: as §1, §2, §3

[14] = tested on: Staphylococcus aureus 45; assay: In Vitro Antibacterial Activity, agar dilution MIC; conditions: S. aureus 45; BHI agar dilution, 20-24 hours; unit assumed
Description: as §1, §2, §3

[15] = tested on: Pseudomonas aeruginosa A5007; assay: In Vitro Antibacterial Activity, agar dilution MIC; conditions: P. aeruginosa A5007; BHI agar dilution, 20-24 hours; unit assumed
Description: as §1, §2, §3

[16] = tested on: Pseudomonas aeruginosa BMH10; assay: In Vitro Antibacterial Activity, agar dilution MIC; conditions: P. aeruginosa BMH10; BHI agar dilution, 20-24 hours; unit assumed
Description: as §1, §2, §3

[17] = tested on: Streptococcus agalactaciae CMX 508; assay: In Vitro Antibacterial Activity, agar dilution MIC; conditions: S. agalactaciae CMX 508; BHI agar dilution, 20-24 hours; unit assumed
Description: as §1, §2, §3

[18] = tested on: Providencia stuartii CMX 640; assay: In Vitro Antibacterial Activity, agar dilution MIC; conditions: P. stuartii CMX 640; BHI agar dilution, 20-24 hours; unit assumed
Description: as §1, §2, §3

[19] = tested on: Pseudomonas aeruginosa K799/WT; assay: In Vitro Antibacterial Activity, agar dilution MIC; conditions: P. aeruginosa K799/WT; BHI agar dilution, 20-24 hours; unit assumed
Description: as §1, §2, §3

[20] = tested on: Escherichia coli H560; assay: In Vitro Antibacterial Activity, agar dilution MIC; conditions: E. coli H560; BHI agar dilution, 20-24 hours; unit assumed
Description: as §1, §2, §3

[21] = tested on: Pseudomonas cepacia 2961; assay: In Vitro Antibacterial Activity, agar dilution MIC; conditions: P. cepacia 2961; BHI agar dilution, 20-24 hours; unit assumed
Description: as §1, §2, §3

[22] = tested on: Micrococcus luteus ATCC 4698; assay: In Vitro Antibacterial Activity, agar dilution MIC; conditions: M. luteus ATCC 4698; BHI agar dilution, 20-24 hours; unit assumed
Description: as §1, §2, §3

[23] = tested on: Streptococcus bovis A5169; assay: In Vitro Antibacterial Activity, agar dilution MIC; conditions: S. bovis A5169; BHI agar dilution, 20-24 hours; unit assumed
Description: as §1, §2, §3

[24] = tested on: Streptococcus pyogenes 930 CONST; assay: In Vitro Antibacterial Activity, agar dilution MIC; conditions: S. pyogenes 930 CONST; BHI agar dilution, 20-24 hours; unit assumed
Description: as §1, §2, §3

[25] = tested on: Staphylococcus aureus CMX 553; assay: In Vitro Antibacterial Activity, agar dilution MIC; conditions: S. aureus CMX 553; BHI agar dilution, 20-24 hours; unit assumed
Description: as §1, §2, §3

[26] = tested on: Klebsiella pneumoniae ATCC 8045; assay: In Vitro Antibacterial Activity, agar dilution MIC; conditions: K. pneumoniae ATCC 8045; BHI agar dilution, 20-24 hours; unit assumed
Description: as §1, §2, §3

[27] = tested on: Enterobacter aerogenes ATCC 13048; assay: In Vitro Antibacterial Activity, agar dilution MIC; conditions: E. aerogenes ATCC 13048; BHI agar dilution, 20-24 hours; unit assumed
Description: as §1, §2, §3

[28] = tested on: Staphylococcus aureus 642A; assay: In Vitro Antibacterial Activity, agar dilution MIC; conditions: S. aureus 642A; BHI agar dilution, 20-24 hours; unit assumed
Description: as §1, §2, §3

[29] = tested on: Staphylococcus aureus A5177; assay: In Vitro Antibacterial Activity, agar dilution MIC; conditions: S. aureus A5177; BHI agar dilution, 20-24 hours; unit assumed
Description: as §1, §2, §3

[30] = tested on: Pseudomonas aeruginosa 2862; assay: In Vitro Antibacterial Activity, agar dilution MIC; conditions: P. aeruginosa 2862; BHI agar dilution, 20-24 hours; unit assumed
Description: as §1, §2, §3

[31] = tested on: Micrococcus luteus ATCC 9341; assay: In Vitro Antibacterial Activity, agar dilution MIC; conditions: M. luteus ATCC 9341; BHI agar dilution, 20-24 hours; unit assumed
Description: as §1, §2, §3

[32] = tested on: Streptococcus pyogenes EES61; assay: In Vitro Antibacterial Activity, agar dilution MIC; conditions: S. pyogenes EES61; BHI agar dilution, 20-24 hours; unit assumed
Description: as §1, §2, §3

[33] = tested on: Staphylococcus aureus 1775; assay: In Vitro Antibacterial Activity, agar dilution MIC; conditions: S. aureus 1775; BHI agar dilution, 20-24 hours; unit assumed
Description: as §1, §2, §3

## O=C(O)c1cn(C2CC2)c2cc(N3CCNCC3)c(F)cc2c1=O [Cipro, Ciprofloxacin, reference compound]
[1]
  MIC values: 0.02 mg/L (≈ 0.0604 µM)
[2]
  MIC values: 0.39 mg/L (≈ 1.18 µM)
[3]
  MIC values: 0.39 mg/L (≈ 1.18 µM)
[4]
  MIC values: 0.39 mg/L (≈ 1.18 µM)
[5]
  MIC values: 0.2 mg/L (≈ 0.604 µM)
[6]
  MIC values: 12.5 mg/L (≈ 37.7 µM)
[7]
  MIC values: 0.39 mg/L (≈ 1.18 µM)
[8]
  MIC values: 0.39 mg/L (≈ 1.18 µM)
[9]
  MIC values: 0.02 mg/L (≈ 0.0604 µM)
[10]
  MIC values: 0.2 mg/L (≈ 0.604 µM)
[11]
  MIC values: 0.005 mg/L (≈ 0.0151 µM)
[12]
  MIC values: 0.2 mg/L (≈ 0.604 µM)
[13]
  MIC values: 0.2 mg/L (≈ 0.604 µM)
[14]
  MIC values: 0.78 mg/L (≈ 2.35 µM)
[15]
  MIC values: 0.1 mg/L (≈ 0.302 µM)
[16]
  MIC values: 0.05 mg/L (≈ 0.151 µM)
[17]
  MIC values: 0.39 mg/L (≈ 1.18 µM)
[18]
  MIC values: 0.78 mg/L (≈ 2.35 µM)
[19]
  MIC values: 0.1 mg/L (≈ 0.302 µM)
[20]
  MIC values: 0.01 mg/L (≈ 0.0302 µM)
[21]
  MIC values: 3.1 mg/L (≈ 9.36 µM)
[22]
  MIC values: 0.78 mg/L (≈ 2.35 µM)
[23]
  MIC values: 1.56 mg/L (≈ 4.71 µM)
[24]
  MIC values: 0.78 mg/L (≈ 2.35 µM)
[25]
  MIC values: 0.78 mg/L (≈ 2.35 µM)
[26]
  MIC values: 0.02 mg/L (≈ 0.0604 µM)
[27]
  MIC values: 0.05 mg/L (≈ 0.151 µM)
[28]
  MIC values: 0.39 mg/L (≈ 1.18 µM)
[29]
  MIC values: 0.39 mg/L (≈ 1.18 µM)
[30]
  MIC values: 25 mg/L (≈ 75.4 µM)
[31]
  MIC values: 1.56 mg/L (≈ 4.71 µM)
[32]
  MIC values: 0.39 mg/L (≈ 1.18 µM)
[33]
  MIC values: > 100 mg/L
